Experimental data reported in BindingDB's records for doi:10.7270/Q2668BMS (Burnham Center For Chemical Genomics, 2010).
“And” between values parts separate entries of the source, which are not always exact repeats. Equal entries are not always repeated.

Each compound was assayed against T1, Amyloid-beta A4 precursor protein-binding family A member 1 (Rattus norvegicus, UniProt O35430) (assay: disruptors of Mint-PDZ/N-type channel peptide interaction – biochemical, HTRF, set 2, SAR follow-up (AID 434980)).
T1 sequence (O35430 whole entry): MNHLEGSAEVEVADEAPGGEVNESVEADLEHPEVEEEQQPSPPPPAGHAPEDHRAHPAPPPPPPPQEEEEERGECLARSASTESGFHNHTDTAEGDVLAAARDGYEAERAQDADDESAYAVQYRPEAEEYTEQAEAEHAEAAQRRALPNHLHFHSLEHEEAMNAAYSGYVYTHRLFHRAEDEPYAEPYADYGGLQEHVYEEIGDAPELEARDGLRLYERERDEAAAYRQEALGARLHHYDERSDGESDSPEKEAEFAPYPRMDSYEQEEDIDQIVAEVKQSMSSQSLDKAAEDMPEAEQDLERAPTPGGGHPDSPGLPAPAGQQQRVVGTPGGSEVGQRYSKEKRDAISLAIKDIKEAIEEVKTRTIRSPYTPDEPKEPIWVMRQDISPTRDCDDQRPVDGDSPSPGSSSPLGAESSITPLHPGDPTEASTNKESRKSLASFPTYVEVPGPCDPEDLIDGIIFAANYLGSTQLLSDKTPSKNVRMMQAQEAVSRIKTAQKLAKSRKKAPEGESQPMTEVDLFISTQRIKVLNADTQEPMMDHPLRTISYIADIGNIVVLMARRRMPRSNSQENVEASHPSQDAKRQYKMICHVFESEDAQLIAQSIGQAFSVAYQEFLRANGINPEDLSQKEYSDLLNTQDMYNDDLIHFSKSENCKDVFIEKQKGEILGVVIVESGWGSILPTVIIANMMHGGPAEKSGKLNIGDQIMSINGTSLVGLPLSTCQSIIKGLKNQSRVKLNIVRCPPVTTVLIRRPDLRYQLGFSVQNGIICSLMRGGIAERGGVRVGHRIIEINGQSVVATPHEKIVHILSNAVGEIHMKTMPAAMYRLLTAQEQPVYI

IC50	SMILES
5.7 µM	CCCc1ccc(CC2=C(C(=O)OCC)C(=O)c3ccccc3C2=O)cc1 [MLS000571357]
> 56.8 µM	CC12C=CC(C)(O1)c1c2c(O)n(-c2ccc(Cl)cc2)c1O
> 56.8 µM	COC(=O)c1cc(-n2c(O)c3c(c2O)C2(C)C=CC3(C)O2)ccc1Cl [MLS000107828]
18.8 µM	CC(=O)Oc1ccc(-n2c(O)c3c(c2O)C2C=CC3O2)cc1 [[4-(1,3-dioxo-3a,4,7,7a-tetrahydro-octahydro-1H-4,7-epoxyisoindol-2-yl)phenyl] acetate]
8.93 µM	Cc1cccc(-n2c(O)c3c(c2O)C2(C)C=CC3(C)O2)c1 [4,7-dimethyl-2-(3-methylphenyl)-3a,7a-dihydro-octahydro-1H-4,7-epoxyisoindole-1,3-dione]
8.89 µM	CC12C=CC(C)(O1)c1c2c(O)n(-c2ccc(F)cc2)c1O [2-(4-fluorophenyl)-4,7-dimethyl-3a,7a-dihydro-octahydro-1H-4,7-epoxyisoindole-1,3-dione]
> 56.8 µM	Cc1ccc(-n2c(O)c3c(c2O)C2(C)C=CC3(C)O2)cc1
6.39 µM	CC(=O)Oc1ccc(-n2c(O)c3c(c2O)C2(C)C=CC3(C)O2)cc1 [MLS000107813]
10.5 µM	CC12C=CC(C)(O1)c1c2c(O)n(-c2ccccc2)c1O [4,7-dimethyl-2-phenyl-3a,7a-dihydro-octahydro-1H-4,7-epoxyisoindole-1,3-dione]
9.86 µM and 9.63 µM	CC(=O)Oc1cccc(-n2c(O)c3c(c2O)C2(C)C=CC3(C)O2)c1
> 56.8 µM	CC12C=CC(C)(O1)c1c2c(O)n(-c2ccc3c(c2)OCO3)c1O
